ChEMBL document CHEMBL1201862, “PubChem BioAssay data set” (2004)
The source made the active and inactive calls.

Tests used:
[1] = molecular target: T1, Dual specificity protein phosphatase 6 (Rattus norvegicus, UniProt Q64346); format: functional
T1 sequence (Q64346 whole entry): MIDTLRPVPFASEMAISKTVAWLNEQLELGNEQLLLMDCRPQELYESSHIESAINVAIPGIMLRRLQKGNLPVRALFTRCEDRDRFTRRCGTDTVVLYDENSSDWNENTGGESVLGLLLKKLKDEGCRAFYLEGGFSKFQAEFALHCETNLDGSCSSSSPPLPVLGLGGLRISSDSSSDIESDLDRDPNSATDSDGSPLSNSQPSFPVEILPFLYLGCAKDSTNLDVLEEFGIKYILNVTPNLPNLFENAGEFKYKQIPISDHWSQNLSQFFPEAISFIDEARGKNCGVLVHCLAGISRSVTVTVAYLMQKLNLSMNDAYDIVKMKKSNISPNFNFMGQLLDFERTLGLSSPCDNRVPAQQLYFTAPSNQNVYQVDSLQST

[2] = molecular target: Glyceraldehyde-3-phosphate dehydrogenase (Homo sapiens, UniProt P04406)
Glyceraldehyde-3-phosphate dehydrogenase, sequence (P04406 whole entry): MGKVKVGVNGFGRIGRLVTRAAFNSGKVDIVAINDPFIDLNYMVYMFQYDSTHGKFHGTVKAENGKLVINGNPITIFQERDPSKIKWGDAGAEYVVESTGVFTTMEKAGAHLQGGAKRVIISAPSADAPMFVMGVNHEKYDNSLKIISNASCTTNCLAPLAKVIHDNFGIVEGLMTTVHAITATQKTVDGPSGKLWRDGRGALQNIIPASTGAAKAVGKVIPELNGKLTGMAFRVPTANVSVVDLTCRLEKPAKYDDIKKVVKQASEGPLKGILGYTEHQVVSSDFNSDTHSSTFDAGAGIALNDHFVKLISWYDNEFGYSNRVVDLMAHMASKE

[3] = molecular target: T2, Tyrosine-protein phosphatase non-receptor type 7 (Homo sapiens, UniProt P35236); format: functional
T2 sequence (P35236 whole entry): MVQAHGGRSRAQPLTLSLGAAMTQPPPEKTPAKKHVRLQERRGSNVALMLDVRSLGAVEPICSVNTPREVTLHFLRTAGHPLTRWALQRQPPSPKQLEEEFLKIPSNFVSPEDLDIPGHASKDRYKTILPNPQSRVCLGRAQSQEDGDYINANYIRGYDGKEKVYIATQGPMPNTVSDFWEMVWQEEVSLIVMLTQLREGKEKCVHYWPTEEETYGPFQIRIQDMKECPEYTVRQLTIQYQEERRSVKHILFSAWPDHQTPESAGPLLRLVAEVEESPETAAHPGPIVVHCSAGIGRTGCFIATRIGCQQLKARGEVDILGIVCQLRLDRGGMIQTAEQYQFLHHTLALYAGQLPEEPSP

[4] = molecular target: T1, Dual specificity protein phosphatase 6
[5] = luciferase reporter signal reduction – luminescence, H4-C neuroglioblastoma cells, dose response (AID 2458); format: functional, cell-based;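 also: H4 neuroglioblastoma cells stably carrying a luciferase reporter gene fusion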
HT-1080 = experiment: HT1080 cell viability loss – fluorescence readout (AID 620); format: functional, cell-based; conditions: Homo sapiens
[6] = alpha-synuclein stem-loop translation blockers – luminescence, H4 neuroglioblastoma cells, dose confirmation, confirmation (AID 2454); format: functional, cell-based;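 also: H4 neuroglioblastoma cells carrying an alpha-synuclein 5'UTR luciferase reporter; potency for inhibition of the luciferase signal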
cells = format: functional, cell-based
[7] = molecular target: T3, Luciferin 4-monooxygenase (Photinus pyralis, UniProt P08659); experiment: Counter Screen for Luciferase-based Assay Positives. [Related pubchem assays: 620, 618, 411 ]
T3 sequence (P08659 whole entry): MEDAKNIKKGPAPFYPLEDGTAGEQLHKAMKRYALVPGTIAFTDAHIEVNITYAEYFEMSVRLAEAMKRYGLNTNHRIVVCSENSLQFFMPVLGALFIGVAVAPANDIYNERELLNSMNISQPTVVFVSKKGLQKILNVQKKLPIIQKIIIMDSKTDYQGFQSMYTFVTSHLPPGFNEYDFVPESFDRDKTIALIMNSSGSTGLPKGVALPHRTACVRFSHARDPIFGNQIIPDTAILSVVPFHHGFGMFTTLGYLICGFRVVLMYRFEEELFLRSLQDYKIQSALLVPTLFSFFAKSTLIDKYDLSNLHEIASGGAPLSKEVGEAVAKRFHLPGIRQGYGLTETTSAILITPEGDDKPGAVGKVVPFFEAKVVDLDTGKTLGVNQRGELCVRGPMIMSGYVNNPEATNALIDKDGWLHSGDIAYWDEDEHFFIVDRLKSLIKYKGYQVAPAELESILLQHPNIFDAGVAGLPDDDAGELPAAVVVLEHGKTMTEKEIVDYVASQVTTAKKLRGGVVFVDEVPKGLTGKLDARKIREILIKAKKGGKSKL

[8] = Luminescence Cell-Based Dose Confirmation HTS to Identify Inhibitors of Platelet Dense Granule Release. [Related pubchem assays: 1663 (Primary HTS), 1678 (Summary of Project)]; format: functional
[9] = molecular target: T3, Luciferin 4-monooxygenase; experiment: inhibition of purified Photinus pyralis luciferase – biochemical, luminescence, dose response (AID 1891)
[10] = molecular target: Mitogen-activated protein kinase 10 (Homo sapiens, UniProt P53779); experiment: Dose response biochemical screening assay for inhibitors of c-Jun N-Terminal Kinase 3 (JNK3). [Related pubchem assays: 746 ]
Mitogen-activated protein kinase 10, sequence (P53779 whole entry): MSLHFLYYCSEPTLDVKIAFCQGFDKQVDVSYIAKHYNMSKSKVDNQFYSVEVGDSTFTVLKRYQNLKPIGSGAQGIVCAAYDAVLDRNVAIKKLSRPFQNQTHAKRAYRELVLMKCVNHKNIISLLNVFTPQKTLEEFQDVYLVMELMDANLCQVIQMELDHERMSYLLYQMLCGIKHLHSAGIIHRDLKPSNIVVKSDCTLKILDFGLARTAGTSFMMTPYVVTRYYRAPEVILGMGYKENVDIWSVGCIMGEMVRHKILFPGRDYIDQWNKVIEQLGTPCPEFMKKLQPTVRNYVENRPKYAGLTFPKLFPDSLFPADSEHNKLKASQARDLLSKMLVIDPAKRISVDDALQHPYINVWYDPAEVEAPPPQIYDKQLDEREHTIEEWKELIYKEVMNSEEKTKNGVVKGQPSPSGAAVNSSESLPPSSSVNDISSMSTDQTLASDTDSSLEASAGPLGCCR

[11] = alpha-synuclein stem-loop luciferase translation blockers – H4 neuroglioma cells, luminescence, confirmation (AID 1988); format: functional, cell-based
[12] = molecular target: Dual specificity tyrosine-phosphorylation-regulated kinase 1A (Rattus norvegicus, UniProt Q63470); format: biochemical, Homo sapiens
[13] = Luminescence Cell-Based Dose Response HTS to Identify Inhibitors of 5'UTR Stem-Loop Driven Prion Protein mRNA Translation in H4 Neuroglioblastoma Cells. [Related pubchem assays: 1827 (Project Summary), 1813 (Primary HTS)]; format: functional
[14] = luciferase reporter signal suppression in cells – H4 neuroglioma cells, luminescence, dose response (AID 1990); format: functional, cell-based
[15] = Luminescence-based counterscreen assay for KLF5 inhibitors: dose response cell-based high throughput screening assay to identify cytotoxic compounds using the IEC-6 intestinal epithelial cell line. [Related pubchem assays: 1700 (Primary screen.), 1834 (Confirmation screen.), 1858 (Summary AID.), 1905 (Counterscreen.)]; format: functional
[16] = HEK-293T viability loss after treatment – luminescence, T-cell screen hits, cytotoxicity control for TCR NF-kB inhibitor project, dose response (AID 489026); format: functional, cell-based;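 also: cells exposed to compound about 14 hours before the viability readout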
Insulin-degrading enzyme = molecular target: T4, Insulin-degrading enzyme (Homo sapiens, UniProt P14735); experiment: Dose Response: Fluorescence polarization-based cell-based high throughput dose response assay for inhibitors of insulin-degrading enzyme (IDE). [Related pubchem assays: 434962 (Primary screen (IDE inhibitors in singlicate)), 449730 (Counterscreen (Cytotoxicity in triplicate)), 435028 (Confirmation (IDE inhibitors in triplicate)), 434984 (Summary …; format: functional
T4 sequence (P14735 whole entry): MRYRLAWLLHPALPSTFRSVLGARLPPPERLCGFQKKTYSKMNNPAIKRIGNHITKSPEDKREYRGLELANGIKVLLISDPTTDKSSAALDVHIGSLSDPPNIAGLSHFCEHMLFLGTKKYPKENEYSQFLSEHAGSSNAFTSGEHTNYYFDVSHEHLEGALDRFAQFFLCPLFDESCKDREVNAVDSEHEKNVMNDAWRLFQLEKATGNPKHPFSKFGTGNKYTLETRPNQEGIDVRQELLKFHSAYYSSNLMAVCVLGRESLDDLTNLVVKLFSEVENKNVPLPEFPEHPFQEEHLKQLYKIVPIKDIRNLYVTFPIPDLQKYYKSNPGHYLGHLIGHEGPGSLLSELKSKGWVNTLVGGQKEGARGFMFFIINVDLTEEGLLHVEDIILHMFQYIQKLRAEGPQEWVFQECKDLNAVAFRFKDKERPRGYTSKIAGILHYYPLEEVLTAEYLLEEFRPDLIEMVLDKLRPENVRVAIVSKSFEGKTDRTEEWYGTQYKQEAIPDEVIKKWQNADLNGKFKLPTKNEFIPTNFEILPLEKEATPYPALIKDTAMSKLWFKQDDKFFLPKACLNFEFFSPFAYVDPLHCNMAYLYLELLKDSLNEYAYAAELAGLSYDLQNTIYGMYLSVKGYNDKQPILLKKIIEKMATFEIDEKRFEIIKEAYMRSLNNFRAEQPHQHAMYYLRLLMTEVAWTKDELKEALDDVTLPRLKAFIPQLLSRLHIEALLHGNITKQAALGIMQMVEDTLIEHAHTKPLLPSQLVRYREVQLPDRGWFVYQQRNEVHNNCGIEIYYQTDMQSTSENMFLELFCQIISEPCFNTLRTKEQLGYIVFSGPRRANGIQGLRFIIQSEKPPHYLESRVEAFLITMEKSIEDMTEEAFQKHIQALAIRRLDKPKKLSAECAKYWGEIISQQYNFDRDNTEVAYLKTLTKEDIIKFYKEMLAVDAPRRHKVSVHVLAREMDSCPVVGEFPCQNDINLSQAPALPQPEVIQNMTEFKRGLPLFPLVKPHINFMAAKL

[17] = mitochondrial function rescue without frataxin homolog – Friedreich's ataxia, plus single-dose screen, dose response (AID 1465); format: functional;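 also: yeast depleted of Yfh1p frataxin homolog grown on glycerol needing respiration; WST-1 tetrazolium dye reduction as measure of cellular dehydrogenase metabolic activity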
Troponin, cardiac muscle = Troponin, cardiac muscle (Homo sapiens, UniProt P19429+P45379+P63316); experiment: Fluorescence-based biochemical high throughput dose response assay for activators of the calcium sensitivity of cardiac Regulated Thin Filaments (RTF). [Related pubchem assays (depositor defined):AID493008, AID493018, AID504382, AID504383]; format: protein-complex assay
[18] = Counterscreen for IDE inhibitors: Luminescence-based cell-based high throughput dose response assay to identify compounds that are cytotoxic to HEK cells. [Related pubchem assays: 434962 (Primary screen (IDE inhibitors in singlicate)), 449730 (Counterscreen (Cytotoxicity in triplicate)), 435028 (Confirmation (IDE inhibitors in triplicate)) …; format: functional; conditions: HEK293
Streptococcus = experiment: Luminescence Microorganism-Based Dose Response Follow up to Identify Compounds Cytotoxic to Streptococcus. [Related pubchem assays: 1677 (Project Summary), 1915, 1914, 1902 (Retest at Dose), 1900 (Counter Screen), 1662 (Primary HTS)]; format: functional, organism-based
[19] = molecular target: Lysosomal acid glucosylceramidase (Homo sapiens, UniProt P04062); experiment: Dose response cell-based high throughput screening assay to identify enhancers of beta-glucosidase activity. [Related pubchem assays: 784 ]; format: functional
Lysosomal acid glucosylceramidase, sequence (P04062 whole entry): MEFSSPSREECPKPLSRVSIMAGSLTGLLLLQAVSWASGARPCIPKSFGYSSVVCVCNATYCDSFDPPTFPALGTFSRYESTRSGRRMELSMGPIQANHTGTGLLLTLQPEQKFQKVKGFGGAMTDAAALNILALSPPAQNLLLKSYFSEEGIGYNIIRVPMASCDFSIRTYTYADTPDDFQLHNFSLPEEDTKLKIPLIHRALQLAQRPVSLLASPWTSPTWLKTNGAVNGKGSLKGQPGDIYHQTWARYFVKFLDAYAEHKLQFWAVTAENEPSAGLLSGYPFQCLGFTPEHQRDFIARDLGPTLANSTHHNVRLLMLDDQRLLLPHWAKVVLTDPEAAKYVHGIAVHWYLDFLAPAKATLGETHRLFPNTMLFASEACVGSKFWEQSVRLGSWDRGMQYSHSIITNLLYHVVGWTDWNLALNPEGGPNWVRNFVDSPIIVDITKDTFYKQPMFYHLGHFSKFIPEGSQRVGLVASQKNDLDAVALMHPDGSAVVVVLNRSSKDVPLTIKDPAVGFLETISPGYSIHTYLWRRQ

HEK293 [20] = experiment: Cytotoxicity assay in HEK293 cells. [Related pubchem assays (depositor defined):AID1266, AID1269, AID1270, AID1271, AID1280, AID1281, AID1282, AID1283, AID1287, AID1289, AID1290, AID1291, AID1292, AID1293, AID1294, AID1295, AID1299, AID1302, AID1364, AID1365, AID1366, AID1367, AID1369, AID1370, AID1371, AID1372, AID1373, AID1374, AID1375, AID1384 …; format: functional, cell-based; conditions: Homo sapiens
[21] = molecular target: T3, Luciferin 4-monooxygenase; experiment: In vitro luciferase assay using purified luciferase. [Related pubchem assays: 1299, 1270, 1295, 1375, 1287, 1281, 1293, 1291, 1289, 1280, 465, 1364, 1282, 1372, 1365, 1370, 1367, 1366, 1266, 1373, 1292, 1290, 1302, 1371, 1283, 1271, 1294, 1374, 1368, 1369 ]
HEK293 [22] = experiment: TNF Induced NF-kB Luciferase in 293-NF-kB-Luc Stable Cells. [Related pubchem assays: 1266, 1299, 1269, 1373, 1292, 1290, 1302, 1371, 1283, 1270, 1295, 1271, 1375, 1294, 1374, 1281, 1293, 1291, 1289, 1280, 465, 1368, 1364, 1282, 1372, 1365, 1369, 1370, 1367, 1366 ]; format: functional, cell-based; conditions: Homo sapiens
HEK293 [23] = experiment: PMA/Ionomycin induced NF-kB luciferase assay in 293- NF-kB-Luc stable cells. [Related pubchem assays: 1299, 1270, 1295, 1375, 1287, 1281, 1293, 1291, 1289, 1280, 465, 1364, 1282, 1372, 1365, 1370, 1367, 1366, 1269, 1373, 1292, 1290, 1302, 1371, 1283, 1271, 1294, 1374, 1368, 1369 ]; format: functional, cell-based; conditions: Homo sapiens
HEK293 [24] = experiment: PMA/Ionomycin-induced IL-8 production in HEK293- NF-kB-Luc stable cells. [Related pubchem assays: 1299, 1295, 1375, 1287, 1281, 1293, 1291, 1289, 1280, 465, 1364, 1282, 1372, 1365, 1367, 1366, 1266, 1269, 1373, 1292, 1290, 1302, 1371, 1283, 1271, 1294, 1374, 1368, 1369 ]; format: functional, cell-based; conditions: Homo sapiens
Vero [25] = experiment: host cell viability loss, Vero E6 – synthesized analogs, cytotoxicity control for West Nile virus antiviral project, SAR follow-up (AID 2244); format: functional; conditions: Chlorocebus sabaeus
Vero [26] = experiment: Vero cell viability after compound exposure – synthesized analogs, set II, cytotoxicity control for West Nile virus antiviral project, SAR follow-up (AID 2402); format: functional; conditions: Chlorocebus sabaeus
Vero [27] = experiment: Vero 76 cell viability after compound exposure – Vero 76 cells, synthesized analogs, cytotoxicity control for West Nile virus antiviral project, SAR follow-up (AID 2414); format: functional; conditions: Chlorocebus sabaeus
[28] = A Cell Based Assay for the Identification of Probe candidate Compounds with Anti- Venezuelan Equine Encephalitis virus. [Related pubchem assays: 2409, 2419, 1621, 2238, 2405, 2024, 2065, 2402, 2414, 1635, 1650, 2244 ]; format: functional

O=C(O)C1Nc2c(F)cccc2C2C=CCC12 (stereo not drawn)
IC50 [1]: 17.2 µM (active)
IC50 [2]: > 100 µM (not active)
IC50 [3]: 5.4 µM (active)
IC50 [4]: 19.8 µM (active)

CCN1C=CC(=C2C(=O)c3ccccc3C2=O)C=C1
EC50 [5]: 0.324 µM (active)
EC50 (HT-1080): > 50 µM (not active)
EC50 [6]: 0.247 µM (active)
EC50 (cells): 0.317 µM (active)
EC50 [7]: 10.1 µM (active)
EC50 [8]: 6.3 µM (active)
EC50 [9]: 1.85 µM (active)
IC50 [10]: 43.5 µM (not active)
EC50 [11]: < 0.1 µM (active)
AC50 [12]: 13.6 µM (active)
EC50 [13]: < 0.1 µM (active)
EC50 [14]: < 0.1 µM (active)
IC50 [15]: 15 µM (not active)
IC50 [16]: > 80 µM (inactive)

CCOC(=O)/C(=C/C1=CC(=C/N(C)C)/C(=O)O1)C(C)=O
IC50 (Insulin-degrading enzyme): 22.1 µM (not active)
EC50 [17]: > 100 µM (active)
EC50 (Troponin, cardiac muscle): 7.74 µM (active)
IC50 [18]: > 55.7 µM (not active)

O=C(CSc1cccs1)N1c2ccccc2Sc2ccccc21
EC50 (Streptococcus): > 500 µM (not active)

COc1ccc(CNC(=O)CCCNS(=O)(=O)c2cccc3nonc23)cc1
EC50 [19]: > 50 µM (not active)

O=C(NC1CCCCCC1)c1ccc([N+](=O)[O-])o1
EC50 (HEK293 [20]): > 8 µM (inactive)
EC50 [21]: > 8 µM (not active)
EC50 (HEK293 [22]): > 8 µM (not active)
EC50 (HEK293 [23]): 3.29 µM (active)
EC50 (HEK293 [24]): 4.02 µM (not active)

COc1ccc(-c2csc(N(C(=O)c3ccccc3Cl)C(C)C)n2)cc1
CC50 (Vero [25]): 22.4 µM (active)
CC50 (Vero [26]): 13.5 µM (active)
CC50 (Vero [27]): 35.5 µM (active)
IC50 [28]: > 66.6 µM (active)
